Laboratory results from ChEMBL document CHEMBL1201862, “PubChem BioAssay data set” (2004).
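Protocol summary: plate cells (96-well), add compound at 5 concentrations, incubate 48 h, interpolate endpoints linearly. GI50 = concentration required for 50% inhibition of growth.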 Activity calls are given as the source filed them. Rule as the data show it: active = GI50 up to about 1.1 µM and inactive = higher.

Legend:
Experiment in all cases: NCI tumour cell line growth inhibition, 48 h
[1] = system: A549
[2] = system: COLO 205
[3] = system: DU-145
[4] = system: HCC 2998
[5] = system: IGROV-1
[6] = system: K562
[7] = system: KM12
[8] = system: MCF7
[9] = system: MDA-MB-231
[10] = system: MDA-MB-435
[11] = system: MDA-N
[12] = system: NCI-H522
[13] = system: NCI/ADR-RES
[14] = system: OVCAR-4
[15] = system: OVCAR-5
[16] = system: SF-295
[17] = system: SN12C
[18] = system: SNB-75
[19] = system: SR
[20] = system: TK-10

Measured: GI50

CC(C)(CO)CNc1cc(=O)[nH]c(N)n1
inactive: [1] > 100 µM | [2] > 100 µM | [3] > 100 µM | [4] > 100 µM | [5] > 100 µM | [6] > 100 µM | [7] > 100 µM | [8] > 100 µM | [9] > 100 µM | [10] > 100 µM | [11] > 100 µM | [12] > 100 µM | [13] > 100 µM | [14] > 100 µM | [15] > 100 µM | [16] > 100 µM | [17] > 100 µM | [18] > 100 µM | [19] > 100 µM

CN(C)/C=N/c1c2c(nc3ccccc13)CCCC2
inactive: [1] 57.9 µM | [2] 70.8 µM | [3] > 100 µM | [5] > 100 µM | [6] 32 µM | [8] 72.9 µM | [9] > 100 µM | [10] > 100 µM | [11] 61.7 µM | [12] > 100 µM | [13] 37.3 µM | [14] 75.2 µM | [15] > 100 µM | [16] 41.5 µM | [17] > 100 µM | [18] 93.8 µM | [19] 25.9 µM | [20] > 100 µM

CC(=O)C(=[N+]=[N-])C(=O)N1CCOC1=O
inactive: [1] > 10 µM | [2] > 10 µM | [3] > 10 µM | [4] > 10 µM | [5] > 10 µM | [6] > 10 µM | [7] > 10 µM | [8] > 10 µM | [9] > 10 µM | [10] > 10 µM | [11] > 10 µM | [13] > 10 µM | [14] > 10 µM | [15] > 10 µM | [16] > 10 µM | [17] > 10 µM | [18] > 10 µM | [19] > 10 µM | [20] > 10 µM

Nc1ccccc1CC(O)C(=O)O (centres undefined)
inactive: [1] > 100 µM | [2] > 100 µM | [3] > 100 µM | [4] > 100 µM | [6] > 100 µM | [7] > 100 µM | [8] > 100 µM | [9] > 100 µM | [10] > 100 µM | [11] > 100 µM | [13] > 100 µM | [15] > 100 µM | [16] > 100 µM | [17] > 100 µM | [18] > 100 µM | [19] > 100 µM | [20] > 100 µM

CCOC(=O)NC(Nc1ccc(OC(F)(F)F)cc1)(C(F)(F)F)C(F)(F)F
inactive: [1] > 100 µM | [2] > 100 µM | [3] > 100 µM | [4] > 100 µM | [5] > 100 µM | [6] > 100 µM | [7] > 100 µM | [8] > 100 µM | [9] > 100 µM | [10] > 100 µM | [11] > 100 µM | [12] > 100 µM | [13] > 100 µM | [15] > 100 µM | [16] > 100 µM | [17] > 100 µM | [18] > 100 µM | [19] > 100 µM | [20] > 100 µM

N#Cc1c(N)n(-c2nc3ccccc3s2)c(=O)c2cc([N+](=O)[O-])ccc12
inactive: [1] 14.6 µM | [3] 25.6 µM | [4] 9.44 µM | [6] 15.7 µM | [7] 19.7 µM | [8] 7.21 µM | [9] 15.6 µM | [10] 25 µM | [11] 25.9 µM | [12] 6.49 µM | [13] 6.46 µM | [14] 24.3 µM | [15] 24.8 µM | [16] 9.2 µM | [17] 23.1 µM | [18] 14.9 µM | [19] 14.2 µM | [20] 23.6 µM

CC1(CF)SCc2nc3ccccc3n21 (centres undefined)
inactive: [1] > 100 µM | [2] > 100 µM | [3] > 100 µM | [4] > 100 µM | [5] > 100 µM | [7] > 100 µM | [8] > 100 µM | [9] > 100 µM | [10] > 100 µM | [11] > 100 µM | [12] > 100 µM | [13] > 100 µM | [15] > 100 µM | [16] > 100 µM | [17] > 100 µM | [18] > 100 µM | [19] > 100 µM | [20] > 100 µM

CC(C#N)(NO)C(C)(C#N)NO (centres undefined)
inactive: [1] > 100 µM | [2] 81.1 µM | [3] > 100 µM | [4] > 100 µM | [5] > 100 µM | [6] > 100 µM | [7] > 100 µM | [8] > 100 µM | [9] > 100 µM | [10] > 100 µM | [11] > 100 µM | [12] > 100 µM | [13] > 100 µM | [14] > 100 µM | [15] > 100 µM | [17] > 100 µM | [18] > 100 µM | [19] > 100 µM | [20] > 100 µM

[N-]=[N+]=Nc1c(-c2ccccc2)c(=O)n(-c2ccccc2)c2ccccc12
inactive: [1] > 100 µM | [2] 62.1 µM | [3] > 100 µM | [4] 35.2 µM | [5] > 100 µM | [6] > 100 µM | [7] 67.6 µM | [8] 54.1 µM | [9] 74.3 µM | [10] 60.8 µM | [11] 45.3 µM | [12] 27.7 µM | [13] 63 µM | [14] 64 µM | [16] 49 µM | [17] 60.8 µM | [18] 36.4 µM | [19] > 100 µM | [20] > 100 µM

CCOP(=O)(OCC)C(Nc1cccc(F)c1)c1ccccc1 (centres undefined)
inactive: [1] 43.9 µM | [2] 34.4 µM | [3] > 100 µM | [4] 66.1 µM | [5] > 100 µM | [6] 34.8 µM | [7] 67 µM | [8] 76.6 µM | [9] 75.5 µM | [10] 78.9 µM | [11] > 100 µM | [12] 36.1 µM | [13] 34.5 µM | [14] 59.3 µM | [16] 54.7 µM | [17] 75.9 µM | [18] 20.7 µM | [19] 38.9 µM | [20] > 100 µM

Cc1cc(C)n(C(=O)CSc2nc3ccc(I)cc3c(=O)n2Cc2ccccc2)n1
inactive: [1] 41 µM | [2] 59.7 µM | [3] 42 µM | [4] 68.4 µM | [5] 20 µM | [6] > 100 µM | [7] 50.2 µM | [8] 96.6 µM | [9] 23.3 µM | [10] 73.6 µM | [11] > 100 µM | [12] 20.1 µM | [13] 36.6 µM | [14] 35.1 µM | [15] > 100 µM | [16] 29.8 µM | [17] 51.8 µM | [18] 25.3 µM | [19] > 100 µM | [20] 41.6 µM

CCOP(=O)(OCC)C(Nc1cccc(F)c1)c1ccc(N(C)C)cc1 (centres undefined)
inactive: [1] 52.7 µM | [2] 97.1 µM | [3] > 100 µM | [4] 64 µM | [5] > 100 µM | [6] 49.1 µM | [7] > 100 µM | [8] > 100 µM | [9] 78.2 µM | [10] > 100 µM | [11] > 100 µM | [12] 75.5 µM | [13] 81.8 µM | [14] > 100 µM | [15] > 100 µM | [16] 57 µM | [17] > 100 µM | [18] > 100 µM | [19] > 100 µM | [20] > 100 µM

COC(=O)c1cc(C(=CCC[C@H]2CC[C@@]3(C)C(CCC4C3CC[C@@]3(C)C4CC[C@@H]3C(C)CCCC(C)C)C2)c2cc(Cl)c(O)c(C(=O)OC)c2)cc(Cl)c1O (some centres undefined)
inactive: [1] > 10 µM | [2] > 10 µM | [3] > 10 µM | [4] > 10 µM | [5] > 10 µM | [6] > 10 µM | [7] > 10 µM | [8] > 10 µM | [9] > 10 µM | [10] > 10 µM | [11] > 10 µM | [12] > 10 µM | [13] > 10 µM | [14] > 10 µM | [15] > 10 µM | [16] > 10 µM | [17] > 10 µM | [18] > 10 µM | [19] > 10 µM | [20] > 10 µM

C=CCOc1cccc(C2(O)c3ccccc3C3=NCCCN32)c1 (centres undefined)
inactive: [1] 5.6 µM | [2] 15 µM | [3] 41.2 µM | [4] 14.5 µM | [5] 8.38 µM | [6] 4.58 µM | [7] 7.48 µM | [8] 16.8 µM | [9] 57 µM | [10] 13 µM | [11] 17.1 µM | [12] 19.5 µM | [13] > 35.2 µM | [14] 15.5 µM | [15] 29.7 µM | [17] 31.1 µM | [18] 5.06 µM | [19] 8.81 µM | [20] 33.3 µM
